Entries after “also recorded” stand apart in the source; their conditions may differ. Each block holds one compound with its values, some of them ahead of it.
Key:
rat MR [1] = target: T1, rat MR (Rattus norvegicus, UniProt P22199); assay: Expression of NGAL mRNA (Q-PCR) in rat cardiomyocyte H9C2 cells stably expressing rat MR; assay type: cell-based; conditions: for Lipocalin2/NGAL expression, time-course: 10^−8M aldosterone
T1 construct: expressed in transfected cells; host or cells: rat H9C2 cardiomyocyte cells (H9-C2/MR)
T1 sequence (P22199 1-981): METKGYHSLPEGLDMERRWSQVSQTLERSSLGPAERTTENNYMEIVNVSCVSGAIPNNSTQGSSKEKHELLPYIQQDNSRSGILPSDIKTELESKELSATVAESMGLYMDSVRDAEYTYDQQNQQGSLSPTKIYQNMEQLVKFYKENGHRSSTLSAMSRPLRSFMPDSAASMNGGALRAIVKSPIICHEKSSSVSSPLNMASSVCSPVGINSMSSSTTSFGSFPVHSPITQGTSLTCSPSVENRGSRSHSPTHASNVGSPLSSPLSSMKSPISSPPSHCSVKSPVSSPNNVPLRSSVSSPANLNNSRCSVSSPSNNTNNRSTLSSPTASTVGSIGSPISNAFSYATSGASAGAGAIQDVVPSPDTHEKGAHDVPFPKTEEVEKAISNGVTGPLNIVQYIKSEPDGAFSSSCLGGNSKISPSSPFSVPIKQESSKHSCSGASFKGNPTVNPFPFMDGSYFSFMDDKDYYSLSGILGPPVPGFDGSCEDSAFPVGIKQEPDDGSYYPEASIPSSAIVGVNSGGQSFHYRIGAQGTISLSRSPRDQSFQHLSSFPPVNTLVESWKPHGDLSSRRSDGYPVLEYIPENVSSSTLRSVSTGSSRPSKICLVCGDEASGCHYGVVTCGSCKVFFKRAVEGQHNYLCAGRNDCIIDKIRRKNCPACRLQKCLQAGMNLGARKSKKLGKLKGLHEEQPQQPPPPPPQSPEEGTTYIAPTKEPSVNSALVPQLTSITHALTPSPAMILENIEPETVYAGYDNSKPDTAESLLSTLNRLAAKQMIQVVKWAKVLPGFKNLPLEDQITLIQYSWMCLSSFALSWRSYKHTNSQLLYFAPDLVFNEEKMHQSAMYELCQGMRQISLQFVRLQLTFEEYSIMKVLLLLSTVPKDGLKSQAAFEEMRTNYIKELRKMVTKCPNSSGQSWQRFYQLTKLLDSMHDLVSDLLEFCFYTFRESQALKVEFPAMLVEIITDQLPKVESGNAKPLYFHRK
Protocol: Expression of NGAL in a Cellular Model of Rat Cardiomyocyte (H9C2 Cells) Stably Overexpressing with Rat MR
(§1) Quantitative NGAL mRNA expression was analyzed by quantitative PCR (Q-PCR, Light Cycler, Biorad) using forward 5′-[…]-3′ (SEQ ID NO:3) and reverse 5′-[…]-3′ (SEQ ID NO:4) primers on 25 μl of RT-PCR (using the qPCR Core kit for Sybr Green I from Eurogentec) prepared using 2 μg DNA-free total RNA extracted from rat H9-C2/MR cells treated with various concentrations of aldosterone or 10^−8M corticosterone or 10^−6 M MR antagonist RU 28318 or GR antagonist RU 486, alone or in combination.

rat MR [2] = target: T1, rat MR; assay: Expression of Serpina3 mRNA (Q-PCR) in rat cardiomyocyte H9C2 cells stably overexpressing rat MR; assay type: cell-based; conditions: for serpina3 induction, time course: Aldosterone 10 nM
Protocol: Expression of Serpina3 in a Cellular Model of Rat Cardiomyocyte (H9C2 Cells) Stably Overexpressing with Rat MR
as §1, with “Serpina3” for “NGAL”, “NO:7)” for “NO:3)”, “NO:8)” for “NO:4)”, “28318,” for “28318 or GR antagonist RU 486,”

MR [3] = target: T2, MR (Mus musculus, UniProt Q8VII8); assay: Plasma NGAL (ELISA) in db/db mouse model of type II diabetes treated with MR antagonist; assay type: in vivo, mice
T2 construct: from tissue; host or cells: living mice (heart, plasma)
T2 sequence (Q8VII8 1-978): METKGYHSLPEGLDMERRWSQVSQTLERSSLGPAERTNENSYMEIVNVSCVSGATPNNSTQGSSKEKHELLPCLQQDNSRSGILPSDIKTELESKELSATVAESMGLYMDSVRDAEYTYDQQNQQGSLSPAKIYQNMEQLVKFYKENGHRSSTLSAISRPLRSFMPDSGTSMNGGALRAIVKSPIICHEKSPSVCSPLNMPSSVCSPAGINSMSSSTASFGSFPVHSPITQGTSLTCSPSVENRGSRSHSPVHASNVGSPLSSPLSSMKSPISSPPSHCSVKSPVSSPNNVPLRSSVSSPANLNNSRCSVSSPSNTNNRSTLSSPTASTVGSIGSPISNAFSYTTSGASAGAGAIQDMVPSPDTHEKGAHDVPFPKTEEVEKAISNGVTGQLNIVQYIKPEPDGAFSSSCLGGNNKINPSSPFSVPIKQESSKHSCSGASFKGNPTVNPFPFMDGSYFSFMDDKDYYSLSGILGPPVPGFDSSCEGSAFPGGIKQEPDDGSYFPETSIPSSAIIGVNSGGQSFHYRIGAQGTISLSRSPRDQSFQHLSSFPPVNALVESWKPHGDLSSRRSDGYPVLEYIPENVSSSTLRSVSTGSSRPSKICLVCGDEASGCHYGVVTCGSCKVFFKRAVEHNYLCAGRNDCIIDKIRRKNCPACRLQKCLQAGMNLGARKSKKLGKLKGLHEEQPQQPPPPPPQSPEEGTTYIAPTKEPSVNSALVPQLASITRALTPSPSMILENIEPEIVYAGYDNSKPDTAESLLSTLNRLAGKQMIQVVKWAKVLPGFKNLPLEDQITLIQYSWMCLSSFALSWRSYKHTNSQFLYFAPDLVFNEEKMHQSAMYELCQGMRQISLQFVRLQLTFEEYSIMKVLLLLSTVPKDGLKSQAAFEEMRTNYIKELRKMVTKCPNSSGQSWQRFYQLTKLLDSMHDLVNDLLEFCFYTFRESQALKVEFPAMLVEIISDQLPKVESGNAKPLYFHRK

MR [4] = target: T2, MR; assay: NGAL expression in uninephrectomized mice with aldosterone infusion and 1% salt (aldo/salt model); assay type: in vivo; conditions: 3 weeks
Protocol: Quantitative NGAL mRNA expression was analyzed by quantitative PCR (Q-PCR, Light Cycler, Biorad) using forward 5′-[…]-3′ (SEQ ID NO:1) and Reverse 5′-[…]-3′ (SEQ ID NO:2) primers on 25 μl of RT-PCR (using the qPCR Core kit for Sybr Green I from Eurogentec) prepared using 2 μg DNA-free total RNA extracted from the heart of one, two and three mo-old MR transgenic mice and compared to matched littermates, as well as two mo-old GR transgenic mice (and respective control littermates). Protein expression of NGAL was analyzed in cardiac protein extracts from two mo-old MR mice using a specific NGAL antibody (AF1857, R&D Systems). […]
Quantitative NGAL mRNA expression was also analyzed by Q-PCR in the heart of mice with uninephrectomy and treated with aldosterone infusion (60 μg/kg/j, 0.25 μl/h ALZET minipumps) and 1% salt in the drinking water for 3 weeks (as compared to uninephrectomized-only control mice), and in thoracic aorta from 9 months-old mice with conditional overexpression of the human MR in the endothelium only obtained after appropriate breeding of the MR transgenic mice described above with an endothelial-specific transactivator mice (provided by L. E. Benjamine, Harvard, USA) (Sun et al., 2005) that allowed conditional expression of hMR in the endothelium only. […]

Lipocalin2/NGAL expression (rat MR [1]; 10^−8M corticosterone): stimulated
SERPINA3 mRNA expression (rat MR [2]; H9C2/MR cells, 10 nM corticosterone, 24 h): increased
Compound: C[C@]12C[C@H](O)[C@H]3[C@@H](CCC4=CC(=O)CC[C@@]43C)[C@@H]1CC[C@@H]2C(=O)CO [corticosterone]

Effect on plasma levels of lipocalin2/NGAL in control mice (MR [3]; control mice, 17 weeks treatment): no effect
Effect on increase in plasma levels of lipocalin2/NGAL in db/db mice (MR [3]; db/db mice, 17 weeks in vivo treatment, 100 mg/Kg/day in drinking water): prevented
Compound: C[C@]12CCC(=O)C=C1C=C[C@@H]1[C@@H]2CC[C@@]2(C)[C@H]1CC[C@@]2(O)CCC(=O)O [canrenoate]

Lipocalin2/NGAL expression (rat MR [1]; 10^−8M aldosterone for 24 h): increased
Lipocalin2/NGAL expression, time-course (rat MR [1]; after 24 h): induced
Lipocalin2/NGAL expression, time-course (rat MR [1]; after 48 h): remained sustained
Lipocalin2/NGAL expression, dose-response (rat MR [1]; increasing concentrations of aldosterone): stimulated by increasing concentrations
expression of serpina3 (in words) (rat MR [2]; H9C2/MR cells, 1 nM aldosterone for 24 h): increased
Serpina3 expression (in words) (rat MR [2]; H9C2/MR cells, 10 nM aldosterone, 24 h exposure): highly induced
serpina3 induction, time course (rat MR [2]; H9C2/MR cells, after 10 hours): induced
serpina3 induction, time course (rat MR [2]; H9C2/MR cells, after 24 h): 15 ×
SERPINA3 mRNA induction (rat MR [2]; H9C2/MR+ cells, aldosterone 1 nM for 24 hrs): about 8 fold
Lipocalin2/NGAL expression in the heart (MR [4]; 60 μg/kg/j infusion, quantitative PCR): increased
plasma levels of lipocalin2/NGAL (MR [4]; ELISA): increased
Compound: C[C@]12CCC(=O)C=C1CC[C@@H]1[C@@H]2[C@@H](O)C[C@]2(C=O)[C@@H](C(=O)CO)CC[C@@H]12 [aldosterone]
Serpina3 induction, dose-response (rat MR [2]; H9C2/MR cells, aldosterone, starting with 1 nM): dose-dependent; also recorded: Concentration dependent induction

Compound: CCC[C@@H]1CC2=CC(=O)CC[C@]2(C)[C@H]2CC[C@@]3(C)[C@@H](CC[C@@]3(O)CCC(=O)[O-])[C@H]12.[K+] [RU 28318]
Effect on aldosterone-induced increase of Lipocalin2/NGAL expression (rat MR [1]; antagonist (10^−6 M) added to 10^−8M aldosterone): prevented
Effect on corticosterone-induced increase of Lipocalin2/NGAL expression (rat MR [1]; antagonist (10^−6 M) with 10^−8M corticosterone): prevented
Effect on corticosterone induction of SERPINA3 mRNA (rat MR [2]; H9C2/MR+ cells, MR antagonist with 10 nM corticosterone): prevented
Effect on aldosterone induction of SERPINA3 mRNA (rat MR [2]; H9C2/MR+ cells, in presence of MR antagonist with 1 nM aldosterone): suppressed

Reference: US20160362744A1, “Biomarkers of Mineralocorticoid Receptor Activation” (INSERM (Institut National de la Sante et de la Recherche …, priority 2008, published 2016)
